Test results from publication PMC4192597, “Antimicrobials, Stress and Mutagenesis” (PLoS Pathogens, 2014).
Converted amounts (≈) assume the structure as drawn. Where two headings read alike, the source gives them in different places.

Tests used:
[1] = tested on: E. coli stress response genes; conditions: cited from earlier work
E. coli MG1655 [2] = assay: microbe, parasite or virus in culture; type: cell-based, Escherichia coli; conditions: 4 hours, 50% reduction of CFUs vs control, Mueller Hinton Broth, 37°C, five replicates, repeated twice
Description: The MIC50s for all antimicrobials were determined by inoculating strains grown to mid-log phase into the wells of a 96-microwell plate. Approximately 10^2 cells from overnight cultures were inoculated into tubes containing 10 ml of Mueller Hinton Broth medium, and the tubes were incubated at 37°C with strong shaking until the mid-log phase of growth (approximately 10^8 cells/ml). […] The plates were incubated at 37°C for 4 h with continuous shaking in a plate reader (Synergy 2, BioTeK). After four hours, aliquots from wells with OD^600 readings ranging from 10 to 90% values in comparison with the control, were serially diluted in sterile 0.9% NaCl, and incubated during 1 hour to allow the resolution of filaments as consequence of SOS activation, if any. Bacterial suspensions were plated in Mueller Hinton Broth agar plates to estimate the viability as colony forming units (CFUs). Five replicates per concentration were prepared and the experiments were repeated twice.

[3] = tested on: E. coli stress response genes (strain MG1655); assay: Relative gene expression of stress response genes by quantitative real-time PCR; type: cell-based, Escherichia coli; conditions: qPCR; for Result, cpxA / Result, cpxR / Result, dinB / Result, lexA / Result, marR / Result, oxyR / Result, phoP / Result, phoQ / Expression, cpxA (Envelope stress) / Expression, cpxR (Envelope stress) / Expression, dinB (SOS response) / Expression, lexA (SOS response) / Expression, marR (Independent multiple antibiotic resistance) / Expression, oxyR (Oxidative stress) / Expression, phoP (Envelope stress) / Expression, phoQ (Envelope stress) / Expression, recA (SOS response) / Expression, rpoE (Envelope stress) / Expression, rpoS (Sigma S response) / Expression, umuC (SOS response) / Result, recA / Result, rpoE / Result, rpoS / Result, umuC: 20 minutes exposure vs non-treated bacteria; for Result, cpxA / Result, cpxR / Result, dinB / Result, lexA / Result, marR / Result, oxyR / Result, phoP / Result, phoQ / Result, recA / Result, rpoE / Result, rpoS / Result, umuC: REST 2009 randomisation test; for Expression, cpxA (Envelope stress) / Expression, cpxR (Envelope stress) / Expression, dinB (SOS response) / Expression, lexA (SOS response) / Expression, marR (Independent multiple antibiotic resistance) / Expression, oxyR (Oxidative stress) / Expression, phoP (Envelope stress) / Expression, phoQ (Envelope stress) / Expression, recA (SOS response) / Expression, rpoE (Envelope stress) / Expression, rpoS (Sigma S response) / Expression, umuC (SOS response): normalized to arcA, mdoG, tus, Pexiganan 16, Melittin 16, Kanamycin 16, Ciprofloxacin 0.5, Lysozyme 128, Ampicillin 32 μg/ml, three biological replicates; for Result, cpxR: key: NDE: non-differentially expressed, p-value ≥ 0,05; UP: upregulated, p-value ≤ 0,05; DOWN: downregulated, p-value ≤ 0,05; for Result, oxyR: key: NDE: non-differentially expressed, p-value ≥ 0,05; UP: upregulated, p-value ≤ 0,05; DOWN: downregulated, p-value ≤ 0,05; for Result, rpoE: key: NDE: non-differentially expressed, p-value ≥ 0,05; UP: upregulated, p-value ≤ 0,05; DOWN: downregulated, p-value ≤ 0,05
Description: Preparation of each of the six treatments and the control samples was carried out by two operators on three consecutive days, thereby comprising three biological replicates for each of the six experimental and one control groups. To obtain the starting material for the experiment, a fresh bacterial culture was grown from a glycerol stock on Mueller-Hinton (MH) agar plates at 37°C for 18–24 hours. One well-isolated colony per biological replicate was used to inoculate 2 ml of liquid MH (Sigma) in a 10 ml sterile polypropylene tube and incubated at 37°C for 16 hours with mild shaking. The overnight (ON) culture was then diluted 1∶100 in MH, subdivided into seven 10 ml aliquots and incubated in 50 ml-Falcon tubes at 37°C for 2.5 hours at 220 rpm. When the OD600 of bacterial cultures reached 0.5–0.7, respective antibiotics and AMPs were added to a concentration to match with those used in the mutagenesis experiments. These bacterial cultures were incubated for 20 minutes at 37°C with gentle shaking. Two ml of bacterial cultures from each treatment and the control were collected, immediately centrifuged at 10000 g for 2 minutes and the supernatant was removed to stop the treatment. The bacterial pellet was then resuspended in 1 ml MH, followed by an addition of 1 ml of RNAprotect Bacteria Reagent (Qiagen), 5 minutes incubation and centrifugation at 10000 g for 2 minutes at room temperature. The supernatant was discarded and the bacterial pellet was immediately frozen and stored at −80°C until RNA extraction.
Total RNA was isolated using RNeasy kit (Qiagen) according to the manufacturer's instructions and eluted in 50 µl of RNase-free water. The nucleic acid yield and purity were determined by measuring the optical density at A260/280 using a Nanodrop spectrophotometer (Thermo Scientific). RNA samples were treated with TURBO DNase (Life Technologies). Briefly, ten µg of RNA were used in a total volume of 500 µl containing 20 units of TURBO DNase, incubated for 30 minutes at 37°C, immediately followed by RNeasy (Qiagen) cleanup and elution in 30 µl of RNase-free water. Following DNase treatment, RNA integrity was assessed using Agilent RNA 6000 Nano kit and 2100 Bioanalyzer instrument (both Agilent Technologies).
High-Capacity cDNA Reverse Transcription Kit with RNase Inhibitor (Applied Biosystems) was used for cDNA synthesis. Initially, to ensure linear conversion of the transcripts, the dynamic range of reverse transcription reaction was tested by performing a standard curve with cDNA, synthesised using various input amounts of pooled RNA. Total RNA (250 ng per reaction) and random primers were used for cDNA synthesis. To obtain sufficient amount of cDNA, several batches of 20 µl RT reactions were pooled, diluted 50-fold with RNase-free water and stored in single-use aliquots at −80°C until further use. All 21 samples were tested for presence of contaminating genomic DNA by running the mdoG assay with cDNA and the respective no reverse transcription (−RT) controls.
Escherichia coli strain K-12 substrain MG1655 complete genome (accession U00096) sequence was downloaded from NCBI database (www.ncbi.nlm.nih.gov) and used for primer design. Target sequence accession number, location of the amplicon, amplicon length and primer sequences for each assay can be found in table S2. Primers were designed using Primer Express software (Applied Biosystems) and optimized for annealing temperature of 60°C. Each primer pair and amplicon were checked for secondary structure formation using Oligo Tool (Integrated DNA technologies, http://eu.idtdna.com/analyzer/Applications/OligoAnalyzer/).

E. coli MG1655 [4] = assay: Minimal inhibitory concentration (MIC), micro-dilution; type: cell-based, Escherichia coli; conditions: inoculum 2×10^8 cfu/ml, 24 h, liquid MH medium, 37°C
Description: E. coli K-12 MG1655 was used for all experiments, grown in liquid Mueller-Hilton (MH) agar or agarose, unless otherwise indicated. All experiments were carried out at 37°C.
MICs were determined according to CLSI recommendations by a micro-dilution method with the exception that the inoculum size that was adjusted to 2×10^8 cfu/ml from a regrowth of overnight cultures to be consistent with the mutagenesis experiments. […] Polypropylene non-binding plates (Th. Geyer, Germany) were used for all experiments.

[5] = norfloxacin 250 ng/ml, 30 min, ref Kohanski,2007
[6] = norfloxacin 250 ng/ml, 60 min, ref Kohanski,2007
[7] = norfloxacin 15 μg/ml, 20 min, gyrA+/parCr, ref Peter,2004
[8] = norfloxacin 15 μg/ml, 30min, gyrAr/parCCr cells, ref Peter,2004
[9] = Escherichia coli, read-out: MIC50
[10] = ampicillin 5 μg/ml, 120 min, ref Kohanski,2007

CCn1cc(C(=O)O)c(=O)c2cc(F)c(N3CCNCC3)cc21 [norfloxacin]
expression, recA (microarray database) ([1]; norfloxacin 0.12 μg/ml, 30 min, ref Shaw,2003): 11.1 | expression, rpoE (microarray database) [1, 5]: -2.308 | expression, rpoS (microarray database) [1, 5]: -2.24 | expression, cpxR (microarray database) [1, 6]: -2.588 | expression, phoP (microarray database) [1, 6]: -2.179 | expression, phoQ (microarray database) ([1]; norfloxacin 15 μg/ml, 4 min, gyrA+/parC+, ref Peter,2004): -2.778 | expression, cpxA (microarray database) ([1]; norfloxacin 15 μg/ml, 10 min, gyrA+/parCr, ref Peter,2004): -2.439 | expression, dinB (microarray database) [1, 7]: 2.57 | expression, oxyR (microarray database) [1, 7]: 4.05 | expression, lexA (microarray database) [1, 8]: 5 | expression, umuC (microarray database) [1, 8]: 8.421 | expression, marR (microarray database) ([1]; norfloxacin (30min) / spectinmycin, 250 ng/ml, 30 min, spectinomycin (400 μg/ml), ref Kohanski,2007): -3.206

CC[C@H](C)[C@H](NC(=O)[C@H](CCCCN)NC(=O)[C@H](CCC(=O)O)NC(=O)[C@H](CCCCN)NC(=O)[C@H](CO)NC(=O)[C@H](CCCCN)NC(=O)[C@H](CCCNC(=N)N)NC(=O)[C@H](Cc1ccccc1)NC(=O)[C@H](Cc1ccccc1)NC(=O)[C@H](CC(=O)O)NC(=O)CNC(=O)[C@H](CC(C)C)NC(=O)[C@@H](N)CC(C)C)C(=O)NCC(=O)N[C@@H](CCCCN)C(=O)N[C@@H](CCC(=O)O)C(=O)N[C@@H](Cc1ccccc1)C(=O)N[C@@H](CCCCN)C(=O)N[C@@H](CCCNC(=N)N)C(=O)N[C@H](C(=O)N[C@H](C(=O)N[C@@H](CCC(N)=O)C(=O)N[C@@H](CCCNC(=N)N)C(=O)N[C@H](C(=O)N[C@@H](CCCCN)C(=O)N[C@@H](CC(=O)O)C(=O)N[C@@H](Cc1ccccc1)C(=O)N[C@@H](CC(C)C)C(=O)N[C@@H](CCCNC(=N)N)C(=O)N[C@@H](CC(N)=O)C(=O)N[C@@H](CC(C)C)C(=O)N[C@H](C(=O)N1CCC[C@H]1C(=O)N[C@@H](CCCNC(=N)N)C(=O)N[C@H](C(=O)N[C@@H](CCC(=O)O)C(=O)N[C@@H](CO)C(=O)O)[C@@H](C)O)C(C)C)[C@@H](C)CC)C(C)C)[C@@H](C)CC [LL-37]
MIC50 (E. coli MG1655 [2]): 8 µg/mL

CC1(C)S[C@@H]2[C@H](NC(=O)[C@H](N)c3ccccc3)C(=O)N2[C@H]1C(=O)O [Ampicillin]
MIC50 (E. coli MG1655 [2]; [9]): 3.2 µg/mL | Result, cpxA [3]: NDE | Result, cpxR [3]: NDE | Result, dinB [3]: NDE | Result, lexA [3]: NDE | Result, marR [3]: UP (2.5-fold) | Result, oxyR [3]: NDE | Result, phoP [3]: NDE | Result, phoQ [3]: NDE | Expression, cpxA (Envelope stress) [3]: 1.083 | Expression, cpxR (Envelope stress) [3]: 0.988 | Expression, dinB (SOS response) [3]: 1.623 | Expression, lexA (SOS response) [3]: 1.563 | Expression, marR (Independent multiple antibiotic resistance) [3]: 2.498 | Expression, oxyR (Oxidative stress) [3]: 0.923 | Expression, phoP (Envelope stress) [3]: 1.026 | Expression, phoQ (Envelope stress) [3]: 0.96 | Expression, recA (SOS response) [3]: 1.627 | Expression, rpoE (Envelope stress) [3]: 0.815 | Expression, rpoS (Sigma S response) [3]: 1.31 | Expression, umuC (SOS response) [3]: 1.373 | MIC (E. coli MG1655 [4]; Escherichia coli, read-out: MIC): 4 µg/mL (≈ 11.4 µM) | expression, lexA (microarray database) [1, 10]: 2.143 | expression, marR (microarray database) [1, 10]: 4.064 | expression, phoP (microarray database) [1, 10]: -2.302 | expression, rpoS (microarray database) [1, 10]: -2.26 | expression, rpoE (microarray database) ([1]; ampicillin 25 μg/ml, 30 min, ref Shaw,2003): -4.545

Human lysozyme: human lysozyme obtained from Sigma
MIC50 (E. coli MG1655 [2]): 12.8 µg/mL | Result, cpxA [3]: NDE | Result, cpxR [3]: NDE | Result, dinB [3]: NDE | Result, lexA [3]: NDE | Result, marR [3]: NDE | Result, oxyR [3]: NDE | Result, phoP [3]: NDE | Result, phoQ [3]: NDE | Result, recA [3]: NDE | Result, rpoE [3]: NDE | Result, rpoS [3]: NDE | Result, umuC [3]: NDE | Expression, cpxA (Envelope stress) [3]: 0.902 | Expression, cpxR (Envelope stress) [3]: 0.908 | Expression, dinB (SOS response) [3]: 1.116 | Expression, lexA (SOS response) [3]: 1.18 | Expression, marR (Independent multiple antibiotic resistance) [3]: 0.633 | Expression, oxyR (Oxidative stress) [3]: 1.334 | Expression, phoP (Envelope stress) [3]: 0.794 | Expression, phoQ (Envelope stress) [3]: 0.667 | Expression, recA (SOS response) [3]: 1.27 | Expression, rpoE (Envelope stress) [3]: 0.784 | Expression, rpoS (Sigma S response) [3]: 0.899 | Expression, umuC (SOS response) [3]: 1.056 | MIC (E. coli MG1655 [4]): 20 µg/mL

O=C(O)c1cn(C2CC2)c2cc(N3CCNCC3)c(F)cc2c1=O [Ciprofloxacin]
MIC50 (E. coli MG1655 [2]; [9]): 0.05 µg/mL | fold downregulation, cpxA ([3]; 20 minutes exposure): 2.25 fold | fold downregulation, marR ([3]; 20 minutes exposure): 5.35 fold | fold downregulation, rpoS ([3]; 20 minutes exposure): 2.08 fold | fold upregulation, dinB ([3]; 20 minutes exposure): 14.2 fold | fold upregulation, lexA ([3]; 20 minutes exposure): 10.5 fold | fold upregulation, recA ([3]; 20 minutes exposure): 66.6 fold | fold upregulation, umuC ([3]; 20 minutes exposure): 11.26 fold | Result, cpxA [3]: DOWN (2.25-fold) | Result, cpxR [3]: NDE | Result, dinB [3]: UP (14.2-fold) | Result, lexA [3]: UP (10.5-fold) | Result, marR [3]: DOWN (5.35-fold) | Result, oxyR [3]: NDE | Result, phoP [3]: NDE | Result, phoQ [3]: NDE | Result, recA [3]: UP (66.6-fold) | Result, rpoE [3]: NDE | Result, rpoS [3]: DOWN (2.08-fold) | Result, umuC [3]: UP (11.26-fold) | Expression, cpxA (Envelope stress) [3]: 0.443 | Expression, cpxR (Envelope stress) [3]: 0.425 | Expression, dinB (SOS response) [3]: 14.157 | Expression, lexA (SOS response) [3]: 10.527 | Expression, oxyR (Oxidative stress) [3]: 3.552 | Expression, phoP (Envelope stress) [3]: 0.655 | Expression, phoQ (Envelope stress) [3]: 0.48 | Expression, recA (SOS response) [3]: 66.583 | Expression, rpoE (Envelope stress) [3]: 0.391 | Expression, rpoS (Sigma S response) [3]: 0.479 | Expression, umuC (SOS response) [3]: 11.255
